Results: paper PMC10191356, “Target-agnostic drug prediction integrated with medical record analysis uncovers differential associations of statins with increased survival in COVID-19 patients” (PLOS Computational Biology, 2023)

Tests used:
[1] = test system: SARS-CoV-2 (WA-1 strain); test: SARS-CoV-2 WT infection of Vero6 cells (CellTiter-Glo); type: cell-based; conditions: MOI 0.01, 3 days, mean of two independent experiments; for IC50: Severe acute respiratory syndrome coronavirus 2, 72 h, relative IC50, WT virus; for Max Inhibition (%): WT virus
[2] = test system: COVID-19 patients; test: Retrospective electronic health record analysis of mortality (Cerner Real World Data COVID-19), propensity score matched; type: in vivo, human; conditions: for Mortality, N (%): cohort before propensity score matching, moderate-intensity statin dose; for Mortality rate, treated patients / No. died/No. treated, treated patients: statin at moderate dose, COVID-19 patients; for reduction in the RR: treated vs matched untreated controls
Procedure: Data from the Cerner Real World Data COVID-19 deidentified EHR database containing records of 490,373 patients with a diagnosis of COVID-19 or COVID-19 exposure across 87 health care centers were analyzed. The following statins were included: atorvastatin, fluvastatin, lovastatin, pitavastatin, pravastatin, rosuvastatin, and simvastatin. Primary outcome was death after the onset of COVID-19. Inclusion criteria, considered comorbidities, and statistical analysis are detailed in the Methods in S1 Text.
Encounters include laboratory and pharmacy information (e.g., medication orders, dispensing), which are date and time stamped. Only patients with COVID-19 diagnosis confirmed by a laboratory test for SARS-CoV-2 (nucleic acid amplification tests and immunoassays) and/or by International Statistical Classification of Diseases and Related Health Problems, Tenth Revision (ICD-10) code U07.1 (for COVID-19 confirmed by laboratory testing),^1 with known demographic characteristics (age, sex, and race and ethnicity), and who were 18 years or older from January to September 2020 were included in our study (n = 90,834). Patients with COVID-19, with a statin medication dose consistent with moderate-intensity therapy,^2 and with a medication order status of active or completed and without a designation of as needed (ie, medication taken only when needed) at least once within a period of 10 days before and 7 days after their first recorded COVID-19 diagnosis were compared with patients with COVID-19 and no statin orders.
Considered comorbidities, identified by using International Classification of Diseases, Ninth Revision, Clinical Modification (ICD-9-CM), and International Statistical Classification of Diseases, Tenth Revision, Clinical Modification (ICD-10-CM), diagnosis codes, included hypertension (I10-I16 and 401.X-405.X), diabetes (O24, E11, E10, E13, and 250.X), chronic obstructive pulmonary disease (J44, 491.2, 493.2, and 496.X), obesity (E66.0, E66.1, E66.2, E66.8, E66.9, 278.00, 278.01, 278.03, Z68.3, Z68.4, V85.3, and V85.4), heart conditions (I20.X, I21.X, I22.X, I23.X, I24.X, I25.X, I42.X, I50.X, 410.X, 411.X, 412.X, 413.X, 414.X, 428.X, and 425.X), cerebrovascular disease (I6X.X, G45.X, G46.X, and 43X.X), cancer (C00-C96, 14X.X, 15X.X, 16X.X, 17X.X, 18X.X, 19X.X, and 20X.X), and chronic kidney disease (N18.X and 585.X). Prescription indications, identified by using ICD-9-CM and ICD-10-CM codes, included high cholesterol/hyperlipidemia (E78.0, E78.1, E78.2, E78.3, E78.4, E78.5, 272, 277). Body mass index (calculated as weight in kilograms divided by height in meters squared) values were identified by Logical Observation Identifiers Names and Codes 39156-5 and 89270-3. Body mass index values of at least 30 were used to confirm the diagnosis of obesity by ICD-9-CM or ICD-10-CM code. The mean dose prescribed for statins-treated patients was calculated for each statin. […] For patients receiving pravastatin, the mean (SD) dose was 48.25 (16.21) mg/d.
The R Matchit package, version 3.0.2 (R Program for Statistical Computing) was used to perform propensity score matching with a nearest-neighbor method to match patients treated with a statin with control patients (1:1 ratio), atorvastatin-treated patients with control patients (1:1 ratio), lovastatin-treated patients with control patients (1:10 ratio), pravastatin-treated patients with control patients (1:10 ratio), rosuvastatin-treated patients with control patients (1:10 ratio), and simvastatin-treated patients with control patients (1:5 ratio), with varying ratios for the different statins to have sufficient power for the comparisons and increase precision. […]

[3] = test system: Vero E6 (Vero6) cells; conditions: uninfected Vero6 cells; mean of two independent experiments
[4] = cited from earlier work
[5] = cited from earlier work; remark: listed apart in the source
[6] = cited from earlier work; remark: listed apart in the source
[7] = test system: SARS-CoV-2 GFP; test: microbe, parasite or virus in culture; type: cell-based; conditions: for Max Inhibition (%) / IC50: mean of two independent experiments; for IC50: Severe acute respiratory syndrome coronavirus 2, 48 h, relative IC50
[8] = in vitro; conditions: African green monkey
[9] = test system: SARS-CoV-2; parameters: method as in earlier work; conditions: VeroE6 cells; cited from earlier work
[10] = test system: IP-10; test: IP-10 production in OC43-infected HUVECs; type: cell-based, human; conditions: 1 or 5 μM
Procedure: (§1) To measure the impact of selected drugs on HCoV-OC43 infection, 96-well plates seeded with human umbilical vein endothelial cells (HUVECs) were infected with HCoV-OC43 and treated with drugs (Methods in S1 Text). Viral load, Hoechst fluorescence, and IP-10 measurements were measured and normalized to vehicle control samples for each assay. Each group was compared to vehicle controls using the Brown-Forsythe and Welch ANOVA tests and corrected for multiple comparisons using a Dunnett T3 test.
(§2) To measure the impact of selected drugs on HCoV-OC43 infection, 96-well plates seeded with Human Umbilical Vein Endothelial Cells (HUVEC) were infected with HCoV-OC43 and treated with drugs. Uninfected and vehicle treated cells (0.1% DMSO) are included as controls. HUVEC plates were pre-dosed with drugs overnight at 34°C at indicated concentrations (100 µl/well). The following day, HCoV-OC43 was added to the wells (100 µl/well) at an MOI of 0.2 and incubated for 3 h at 34°C. […] After five PBS washes, Hoechst fluorescence was read at 355 nm excitation and 450 nm emission using a Synergy H1 Spectrophotometer. Subsequently, viral load was analyzed using the ImmPACT DAB Peroxidase (HRP) Substrate kit (Vector Labs) according to the manufacturer’s instructions, and DAB absorbance was read at 465 nm.

[11] = test system: SARS-CoV-2; test: Preliminary in vivo study in SARS-CoV-2-infected mice
[12] = test system: HCoV-OC43; test: HCoV-OC43 infection of HUVECs, viral load; type: cell-based, human coronavirus OC43; conditions: HUVEC cells, 1 or 5 μM
Procedure: as §1, §2

[13] = test system: SARS-CoV-2; test: Preliminary in vivo study in SARS-CoV-2-infected hamsters

SMILES | Mortality, N (%) [2] | Mortality rate, treated patients [2] | No. died/No. treated, treated patients [2] | reduction in the RR [2] | Max Toxicity (%) [3] | Active metabolites [4] | Bioavailability (%) [4] | Elimination half-life [4] | Metabolism [4] | Protein binding (%) [5] | Solubility [6] | Max Inhibition (%) [7] | CC50 [8] | Clearance [4] | also measured
CC(C)c1c(C(=O)Nc2ccccc2)c(-c2ccccc2)c(-c2ccc(F)cc2)n1CC[C@@H](O)C[C@@H](O)CC(=O)O [atorvastatin] | 431 (16.1) % | 16.1% | 431/2676 | 14% | – | – | – | – | – | – | – | – | – | – | IC50 [1]: 1.9 µM; Max Inhibition (%) [1]: 24.4%
CC(C)n1c(/C=C/C(O)CC(O)CC(=O)O)c(-c2ccc(F)cc2)c2ccccc21 (centres unmarked) [fluvastatin] | – | – | – | – | 80.4% | No | 19 to 29% | 0.5 to 2.3 h | CYP2C9 | >99% | Lipophilic | 19% | 10.6 µM | – | –
CC[C@H](C)C(=O)O[C@H]1C[C@@H](C)C=C2C=C[C@H](C)[C@H](CC[C@@H]3C[C@@H](O)CC(=O)O3)[C@H]21 [lovastatin] | 15 (21.4) % | 21.4% | 15/70 | – | 74.2% | Yes | – | 2.9 h | CYP3A4 | >95% | Lipophilic | 55.8% | 16.9 µM | Hepatic | IC50 [7]: 7.8 µM
O=C(O)C[C@H](O)C[C@H](O)/C=C/c1c(C2CC2)nc2ccccc2c1-c1ccc(F)cc1 [pitavastatin] | 4 (30.8) % | – | – | – | 83.6% | Yes | 51% | 12 h | Non-CYP450 Limited CYP2C9/19 | 99% | Lipophilic | – | 0.3 µM | Hepatic | IC50 [1]: 1.6 µM; Max Inhibition (%) [1]: 19.1%
CC[C@H](C)C(=O)O[C@H]1C[C@H](O)C=C2C=C[C@H](C)[C@H](CC[C@@H](O)C[C@@H](O)CC(=O)O)[C@H]21 [pravastatin] | 71 (18.5) % | 18.5% | 71/383 | – | 4% | No | 18% | 1.3 to 2.8 h | Non-CYP450 | 43 to 55% | Hydrophilic | 21.7% | – | Hepatic and renal | Relative risk of death (95% CI) ([2]; treated vs propensity score matched untreated controls, iteration with the least significant result): 0.78 (0.61–1.00)
CC(C)c1nc(N(C)S(C)(=O)=O)nc(-c2ccc(F)cc2)c1/C=C/[C@@H](O)C[C@@H](O)CC(=O)O [rosuvastatin] | 53 (13.1) % | 13.1% | 53/404 | 41% | – | No | – | – | Non-CYP450 Limited CYP2C9/8 | – | Hydrophilic | – | – | Hepatic and renal | effects on SARS-CoV-2 replication [9]: inhibitory effects
CCC(C)(C)C(=O)O[C@H]1C[C@@H](C)C=C2C=C[C@H](C)[C@H](CC[C@@H](O)C[C@@H](O)CC(=O)O)[C@H]21 [simvastatin hydroxy acid] | – | – | – | – | – | – | – | – | – | – | – | – | – | – | inhibition of SARS-CoV-2 infection relative to pro-drug form of simvastatin [7]: much weaker inhibition
CCC(C)(C)C(=O)O[C@H]1C[C@@H](C)C=C2C=C[C@H](C)[C@H](CC[C@@H]3C[C@@H](O)CC(=O)O3)[C@H]21 [simvastatin] | 153 (19.5) % | 19.5% | 153/784 | 17% | 78.5% | – | – | 2 to 3 h | – | 94 to 98% | – | 93.7% | 6.5 µM | Hepatic | cytokine (IP-10) production [10]: potently reduced; effect on infection and host response ([11]; SARS-CoV-2-infected mice, very preliminary): no effect; plasma levels ([11]; mice, compared with in vitro IC50): greater than the IC50; IC50 [7]: 0.8 µM; OC43 infection (viral load) [12]: inhibits; effect on infection and host response ([13]; SARS-CoV-2-infected hamsters, very preliminary): no effect; plasma levels ([13]; hamsters, compared with in vitro IC50): greater than the IC50
